Measured values published in patent US8586632B2, “Use of the irritating principal oleocanthal in olive oil, as well as structurally and functionally similar compounds” (Monell Chemical Senses Center, priority 2007, dated 2013).

Key:
[1] = test system: cultured rat trigeminal neurons; assay: Intracellular calcium level in cultured rat trigeminal neurons (ratiometric Fura2 imaging); format: cell-based; parameters: key to TG Neuron Activation: The highest scale (+++) was assigned to the analogs that had approximately the same magnitude of response and excited the same number of neurons as oleocanthal; ++ responses were assigned to analogs that elicited intermediate responses to an intermediated number of cells; The + responses were weak but detectable and were observed in very few cells; No detectable response is indicated by 0; conditions: for TG Neuron Activation: single concentration 5 micromolar, response relative to oleocanthal; for intracellular calcium response in trigeminal neurons (in words): cultured rat trigeminal neurons; for number of trigeminal neurons responding, as % of the response to oleocanthal: 5 micromolar oleocanthal = 100%
Method: Activity of synthetic oleocanthal analogs was assessed by measurement of the intracellular calcium level in cultured rat trigeminal neurons. Flavor or taste perception is made up of the sensory experience of three chemical senses: taste, smell, and chemical-induced irritation or pain. This third component is mainly determined by the impact of chemical stimuli that are transmitted to the brain via the trigeminal nerve.
Trigeminal ganglia were harvested from 1-3 day old Sprague-Dawley rat pups. Neurons were dissociated in Hanks Buffered Saline Solution (HBSS) with trypsin (0.0625%) for 15 minutes, collagenase (1 mg/ml) and DNase (0.1 mg/ml) for 45 minutes, and then were separated from myelin/debris using a 15/30/60% Percoll gradient. The neurons were plated on poly-1-lysine/laminin-coated coverslips in modified neurobasal medium supplemented with B27, 100 ng/ml Nerve Growth Factor (NGF) and kept at 37° C., 5% CO2. […] Intracellular calcium was measured ratiometrically using excitation at 340 and 380 nm and emission at 510 nm. Experiments were performed at 31-32° C. Neurons were stimulated by compounds in Ringers solution (pH=7.34) that flowed over the neurons for 15 sec.
Synthetic (−)oleocanthal and related analogs were dissolved in absolute ethanol and then added to Ringer's solution adjusted at pH=7.34 with a final ethanol concentration of less than 0.1%. The octanol-water partition coefficient (Log P), expressing compound lipophilicity, was calculated based on chemical structure with the Interactive Analysis Log P predictor website. In general, the higher the log P number, the greater the lipophilicity, and the greater the tendency of the compound to partition into the lipid phase of the cell membranes.
Oleocanthal activates rat trigeminal neurons; 5 microM of the olive oil irritant elicits a robust intracellular calcium increase in about 25 to about 35% of cultured rat trigeminal neurons (FIG. 6). Therefore, to assess the irritation potency of oleocanthal analogs and in order to avoid human consumption of unnatural compounds, activity was determined by measurement of the intracellular calcium level in cultured rat trigeminal neurons. […] Thus, both aldehyde groups, as well as unsaturation, are required to maintain full activity. […] Analog 11 is of particular interest. Like oleocanthal, analog 11 (or 4-DHPEA-EDA) is a secoiridoid derivative naturally present in extra virgin olive oil. Oleocanthal and 4-DHPEA-EDA formation occurs during olive oil production by enzymatic and chemical degradation of their respective precursors ligstroside and oleuropein, two glucosylated secoiridoids abundantly synthesized in unripe olives (FIG. 9). Oleocanthal and 4-DHPEA-EDA are structurally very similar—the sole difference being a second phenolic hydroxyl group in 4-DHPEA-EDA. […] For the experiment illustrated in FIG. 8, analog 13 (5, 10, 20 and 50 micomolar) was applied on a separate coverslip containing trigeminal neurons and activation was determined. This was followed by application of 5 micromolar oleocanthal to the same four coverslips. For each coverslip, the number of trigeminal neurons responding to oleocanthal was determined and defined as 100%. The number of trigeminal neurons responding to analog 13 corresponded to approximately 6% (5 micromolar analog 13), 25% (10 micromolar analog 13), 45% (20 micromolar analog 13) and 96% (50 micromolar analog 13) of the response to oleocanthal. For each coverslip, 18-20 trigeminal neurons were sensitive to oleocanthal. […] Analog 13 is very close in structure to oleocanthal (Table 2), lacking only a single carbon. […] While not wishing to be bound by any one theory, it is believed that the shorter chain of analog 13 pulls the rigid ring forward creating a steric obstruction to efficacious binding with the receptor.

oral irritation = conditions: reported, Anke et al. 1991; cited from earlier work
throat = assay: Throat irritation sensory test of synthetic oleocanthal in corn oil (two-alternative forced-choice); format: in vivo, human; conditions: for correct trials, 2AFC throat irritation: ten subjects
Method: Testing was double-blind and each was exposed to three sets of two samples, one of which was added synthesized oleocanthal and the other served as the blank control. The task was to indicated which of the pair was more irritating. […] Importantly, the effect was dose dependent (FIG. 2 open triangles, dashed line). Ten subjects were tested with non-irritating commercial corn oils presented neat and mixed with either synthesized (−)-oleocanthal or the bitter agent sucrose octaacetate (SOA) (Sigma-Aldrich). […] (−)-Oleocanthal was tested at the highest concentration identified in the ten rated oils, 200 μg/ml, and at one half and whole log steps more dilute 63.25 and 20 μg/ml. SOA was added to the corn oil (4×10^−4, 1×10^−4, 5×10^−5 M) to intensity match the irritation of the three levels of (−)-oleocanthal. Subjects participated in two-alternative forced-choice (2AFC) trials (four trials at every concentration for each subject) and in intensity ratings sessions (four ratings per each oil). For the 2AFC trials subjects were presented with two 3.0 ml corn oil samples with matching intensities of SOA and (−)-oleocanthal in ascending order, and were required to sample oils as described above. While blind to stimulus position, subjects were asked two questions on each trial, “Which of the two oils was more irritating in the throat?” and “Which one was more bitter?” At the 20 μg/ml & 5×10^−5 M level most subjects reported on some trials that the same oil was both the more irritating and the more bitter of the two. […] Subjects performed at chance when selecting among two unadulterated corn oils, when the correct choice was randomly assigned prior to testing. […] The other two concentrations were correct 39/40 and 40/40 trials. For the intensity rating trials subjects were presented with all eight oils in ascending order, counterbalanced for stimulus order and asked to rate the throat irritation and bitterness of every oil on a general labeled magnitude scale.

| Compound | TG Neuron Activation [1] | intracellular calcium response in trigeminal neurons (in words) [1] | further results |
| --- | --- | --- | --- |
| C/C=C(/C=O)[C@@H](CC=O)CC(=O)OCCc1ccccc1 [Analog 1] | +++ | – | – |
| C/C=C(/C=O)[C@@H](CC=O)CC(=O)OCCc1ccc(F)cc1 [Analog 2] | +++ | – | – |
| C/C=C(/C=O)[C@@H](CC=O)CC(=O)OCCc1ccccc1O [Analog 3] | +++ | – | – |
| C/C=C(/C=O)[C@@H](CC=O)CC(=O)OCCc1cccc(O)c1 [Analog 4] | +++ | – | – |
| C/C=C1\[C@H](CC(=O)OCCc2ccc(O)cc2)C[C@@H](O)[C@H]1O [Analog 5] | 0 | did not elicit intracellular calcium increase | – |
| C/C=C(/C=O)[C@@H](CC=O)CC(=O)OC [Analog 6] | ++ | – | – |
| C/C=C(/C=O)[C@@H](CC=O)CC(=O)OCCCCC [Analog 7] | +++ | – | – |
| C/C=C(/C=O)[C@@H](CC=O)CC(=O)OCCCc1ccc(O)cc1 [Analog 8] | +++ | – | – |
| C/C=C(/C=O)[C@@H](CCO)CC(=O)OCCc1ccc(O)cc1 [Analog 9] | + | did not elicit intracellular calcium increase | – |
| C/C=C(/CO)[C@@H](CCO)CC(=O)OCCc1ccc(O)cc1 [Analog 10] | 0 | did not elicit intracellular calcium increase | – |
| C/C=C(/C=O)[C@@H](CC=O)CC(=O)OCCc1ccc(O)c(O)c1 [Analog 11, 4-DHPEA-EDA] | +++ | – | oral irritation (in words) (oral irritation): very little oral irritation |
| CC[C@@H](C=O)[C@@H](CC=O)CC(=O)OCCc1ccc(O)cc1 [Analog 12] | 0 | did not elicit intracellular calcium increase | – |
| C/C=C(/C=O)[C@@H](CC=O)CC(=O)OCc1ccc(O)cc1 [Analog 13] | + | small responses | number of trigeminal neurons responding, as % of the response to oleocanthal ([1]; 5 micromolar analog 13): approximately 6%; number of trigeminal neurons responding, as % of the response to oleocanthal ([1]; 10 micromolar analog 13): about 25%; number of trigeminal neurons responding, as % of the response to oleocanthal ([1]; 20 micromolar analog 13): ~45%; number of trigeminal neurons responding, as % of the response to oleocanthal ([1]; 50 micromolar analog 13): ~96%; multiple of concentration needed to reach the potency of oleocanthal ([1]; trigeminal neuron stimulation, FIG. 8): approximately 10 times |
| C/C=C(/C=O)[C@@H](CC=O)CC(=O)OCCc1ccc(O)cc1 [Oleocanthal (−), 2-(4-hydroxyphenyl)ethyl, 4-formyl-3-(2-oxoethyl)-4-hexenoic acid ester] | +++ | – | correct trials, 2AFC throat irritation (throat; 20 μg/ml in corn oil vs intensity-matched SOA): 24 out of 40; correct trials, 2AFC throat irritation (throat; 63.25 μg/ml in corn oil vs intensity-matched SOA): 39/40; correct trials, 2AFC throat irritation (throat; 200 μg/ml in corn oil vs intensity-matched SOA): 40/40; throat irritation (in words) (throat; synthetic compound in corn oil): identical to oleocanthal isolated from premium olive oil; correct identification of the more irritating sample (2AFC) (throat; three evaluators, three presentations each, corn oil, approx. twice the concentration in Falconaro olive oil, vs blank, p<0.01): 9 of 9; concentration near detection threshold levels in corn oil (throat; throat irritation, 2AFC): ~20 µg/mL |
